# Test results taken from US5149688A, “Methods, compounds, and compositions for immunosuppression” (priority 1990, dated 1992).
# Like-named read-outs stand apart in the source and are kept apart here.
# What was measured:
# lymphocytes [1] = assay: Phytohemagglutinin A (PHA) assay; type: cell-based; conditions: Lymphocyte, read-out: concentration giving 50% inhibition, PHA assay
# From the text: (§1) The following studies sought to characterize the immunosuppressive activities of ABA, both as to in vitro and in vivo efficacy in experimental systems. It is important to point out that the results obtained from the in vitro systems are generally predictive of the in vivo immunosuppressive properties of the ABA. More specifically, the assays used here are mixed lymphocyte response (MLR) and phytohemagglutinin A (PHA) assays which are valuable for identifying immune suppressive molecules in vitro, and that the results obtained therefrom are generally predictive of their in vivo effectiveness. The assays are further described below.
# A second assay widely used to study immune responsiveness is mitogenic stimulation of lymphocytes with mitogenic substances of plant origin. The most widely used plant molecule is PHA.
# (§2) Thus, it will be appreciated as to both the mixed lymphocyte and PHA assay that they are valuable for identifying immune suppressive molecules in vitro, and that the results obtained therefrom are generally predictive of their in vivo effectiveness.
# lymphocytes [2] = assay: Primary mixed lymphocyte response (MLR) assay; type: cell-based; conditions: read-out: concentration giving 50% inhibition, primary MLR assay
# From the text: as §1
# The in vitro mixed lymphocyte assay is presently employed in the clinical setting as an indicator of histocompatibility, and is premised on the transformation of resting genetically dissimilar lymphocytes into cells which synthesize DNA and undergo proliferation.
# as §2
# lymphocytes [3] = assay: Secondary mixed lymphocyte reaction (2'-MLR) assay; type: cell-based; conditions: read-out: concentration inhibiting 50% of the stimulatory activity, 2'-MLR
# From the text: In addition to the above immunosuppressive assays, a secondary mixed lymphocyte reaction assay was applied to ABA. The secondary mixed lymphocyte assays differs from the primary mixed lymphocyte reaction assays in that they employ many more primed responder cells that are responsive to the primary stimulating cells. The presence of such responsive cells is a reflection of immunological memory in an ongoing immunological response. […] Generally between 10% to 50% of the original input cells are recovered in viable condition. These cells are then used in the secondary mixed lymphocyte reaction.
# The procedure for carrying out a secondary mixed lymphocyte reaction is described by T. Meoen, Immunological Methods, Eds I. Lefkoivits and B. Pernis, […], New York (1979). It will be appreciated that described therein is a method for carrying out secondary lymphocyte reactions using mouse cells, however such methods are generally applicable to performing secondary mixed lymphocyte reactions using human cells with modifications that are well known to those skilled in the art.
# adjuvant arthritis (AA) [4] = tested on: adjuvant arthritis (AA)
# [5] = tested on: rheumatoid arthritis (RA); conditions: human, in vivo; cited from earlier work
# dihydrofolate reductase = conditions: cited from earlier work
# adjuvant arthritis (AA) [6] = assay: Prophylactic effect of SA on adjuvant arthritis in rats (Example 1); type: in vivo, male Lewis rats
# [7] = Plasma levels of SA during CI therapy (HPLC); type: in vivo, male Lewis rats; conditions: 400 mg/kg/day CI; for concentration at 216 h: rat, plasma, sc, 400 mg/kg/day
# adjuvant arthritis (AA) [8] = assay: Therapeutic effect of SA on AA (Example 2); type: in vivo, rats
# Procedure: The following experiments examined the therapeutic effect of SA on the progression of AA. In these studies, the treatments with SA began at day 5 after the rats had been immunized with M.Tb in their left footpads. At this time, the activation of lymphoid cells with M.Tb was well established and the appearance of mononuclear cells at the joint has been reported as the earliest histologic findings. Billingham, 1983, Pharma. Theory, 21: 389.
# 325 mg/kg/day of SA was administered by subcutaneous pump infusion from day 5 until day 19. The control animals received isotonic and isovolumic NaCl control.
# A parallel group of animals were treated with daily intraperitoneal injections of 800 mg/kg/day of SA (FIGS. 6 and 7). This was done to compare the relative efficacy of continuous infusion versus a single daily intraperitoneal injection.
# adjuvant arthritis (AA) [9] = assay: Comparative efficacy of MTX and SA in suppressing onset of AA (Example 3); type: in vivo, Lewis rats
# Procedure: On the same day, pumps were surgically implanted into the first two groups. The first group received SA at 300 mg/kg/day through the pumps. The second group, which served as the control, received continuous infusion of 2.5M NaCl through the pumps.
# [10] = tested on: established adjuvant arthritis (AA); assay: Comparative efficacy of SA and MTX in the treatment of established arthritis (Example 4); type: in vivo, male Lewis rats
# Procedure: Three groups of 15 male Lewis rats were injected with M.Tb on day 0 in the left hindpaw. […] On day 16, subcutaneous pumps were placed in the SA and control groups. SA was administered at 300 mg/kg/day by CI. The control group received 2.5M NaCl. […] Treatment was continued to day 30.
# adjuvant arthritis (AA) [11] = assay: Long term suppression of AA using combined SA and MTX treatment (Example 6); type: in vivo, male Lewis rats; conditions: SA 300 mg/kg/day IP or MTX 0.9 mg/kg/week IP, day 5 to 15
# Procedure: On day 0, three groups of 10 male Lewis rats were injected with M.Tb in oil suspension, as in previous examples. […] The animals were evaluated for arthritis development.
# [12] = rat, in vivo
# Procedure: (§3) Isotonic and isovolumic saline was used as the control in this subcutaneous infusion treatment regimen (hereinafter referred to as SQ, or continuous infusion, CI, regimen). The treatment was started on day -4 prior to M.Tb injection (day 0). The pumps were calculated to infuse until day 10. Ten rats were used in each group.
# [13] = tested on: delta-aminolevulinic dehydratase; conditions: cited from earlier work
# allogeneic tumors = conditions: rats; cited from earlier work
# [14] = Body weight / toxicity of rats under prophylactic SA treatment; conditions: SA level necessary for suppression of AA
# Procedure: as §3
# adjuvant arthritis (AA) [15] = assay: Therapeutic treatment of AA with SA and/or MTX, summary of set of experiments run in triplicate
# Procedure: In the SA and MTX combined treatment regimen, the SA was administered in an amount ranging from 150-300 mg/kg/day. The MTX was administered three times a week in IP injections, at a total of 0.9 mg/kg/week.
# [16] = SA 300 mg/kg/day CI, day 16 to 30
compound,measurement,setting,value
"CC(=O)CC(=O)c1ccccc1C(=O)O [ABA, 2-acetoacetyl benzoic acid]",IC50,lymphocytes [1],91 ± 60 µM
same,IC50,lymphocytes [2],870 ± 280 µM
same,IC50,lymphocytes [3],~1600 µM
same,"footpad swelling at day 19, 4 days after cessation",adjuvant arthritis (AA) [4]; ABA 400 mg/kg/day IP,decreased footpad swelling
same,"suppression of AA, ABA compared with SA",adjuvant arthritis (AA) [4]; ABA 400 mg/kg/day IP vs SA 800 mg/kg/day IP,ABA is more efficacious than SA in suppressing AA
same,"footpad swelling, clinical disease scores and incidence of arthritis during administration","adjuvant arthritis (AA) [4]; ABA 400 mg/kg/day IP, FIGS. 14 and 15","AA was suppressed; the footpad swelling, clinical disease scores and incidence of arthritis were all lowered"
same,Arthritis Incidence,"adjuvant arthritis (AA) [4]; ABA 100 in ABA/PEG formulation, day 12",100%
same,Arthritis Incidence,"adjuvant arthritis (AA) [4]; ABA 100 in ABA/PEG formulation, day 19",100%
same,suppression of arthritis,adjuvant arthritis (AA) [4]; ABA 200 and 100 mg/kg/day IP,did not show observable suppression of arthritis
same,Arthritis Incidence,"adjuvant arthritis (AA) [4]; ABA 200 in ABA/PEG formulation, day 12",100%
same,Arthritis Incidence,"adjuvant arthritis (AA) [4]; ABA 200 in ABA/PEG formulation, day 19",100%
same,Arthritis Incidence,"adjuvant arthritis (AA) [4]; ABA 400 in ABA/PEG formulation, daily IP day 5 to 15, day 12, control 100%",40%
same,Arthritis Incidence,"adjuvant arthritis (AA) [4]; ABA 400 in ABA/PEG formulation, day 19 (4 days after cessation)",100%
same,"suppression of AA at 400 mg/kg/day, post-immunization regimen",adjuvant arthritis (AA) [4]; ABA given IP,ABA suppressed AA at 400 mg/kg/day when given IP in a post-immunization regimen
CC(C)(S)[C@@H](N)C(=O)O [D-penicillamine],toxic side effects,[5],causes bone marrow depression and renal toxicity
"CN(Cc1cnc2nc(N)nc(N)c2n1)c1ccc(C(=O)N[C@@H](CCC(=O)O)C(=O)O)cc1 [MTX, Methotrexate]",inhibition of dihydrofolate reductase,dihydrofolate reductase,inhibits dihydrofolate reductase
"CC(=O)CC(=O)CCC(=O)O [SA, Succinylacetone]","arthritis severity, dose dependence","adjuvant arthritis (AA) [6]; SA 400 and 200 mg/kg/day CI, day -4 to day 10",inhibited arthritis severity in a dose dependent manner
same,right footpad swelling and arthritis in non-injected extremities,"adjuvant arthritis (AA) [6]; SA 400 and 200 mg/kg/day, SQ ALZET pumps, day -4 to day 10, FIGS. 1 and 2",suppression of clinical arthritis
same,histologic arthritis of the joints,"adjuvant arthritis (AA) [6]; SA treated cohort, CI",found to suppress histologic arthritis
same,concentration,"[7]; blood collected on day 9, individual rats SA-C1, SA-C2, SA-C3, 12960 min, 12960 min, read-out: SA Level (plasma)",50 µM
same,concentration at 216 h,"[7]; blood collected on day 9, individual rats SA-C1, SA-C2, SA-C3, read-out: SA Level (plasma)",44 µM
same,concentration at 216 h,"[7]; day 9, HPLC, read-out: plasma SA levels associated with clinical suppression of arthritis",40 to 50 µM
same,continuous infusion versus daily IP injection,adjuvant arthritis (AA) [8]; 325 mg/kg/day CI vs 800 mg/kg/day IP,continuous infusion results in greater suppression at a lower dose than does daily IP injection
same,right hindpaw swelling and clinical severity of arthritis,"adjuvant arthritis (AA) [8]; SA 325 mg/kg/day SQ pump infusion, day 5 to 19, FIGS. 4 and 5",Right hindpaw swelling and clinical severity of arthritis was suppressed
same,arthritis during treatment,adjuvant arthritis (AA) [8]; SA 325 mg/kg/day continuous infusion,completely suppressed during treatment
same,day until which the clinical scores did not increase,"adjuvant arthritis (AA) [8]; SA 325 mg/kg/day continuous infusion, day 5 to 19",36 days
same,increase in clinical scores relative to saline treated animals,"adjuvant arthritis (AA) [8]; SA 325 mg/kg/day continuous infusion, from day 36",less than half of the saline treated animals
same,suppression of AA beyond termination of treatment,"adjuvant arthritis (AA) [8]; SA 800 mg/kg/day IP, FIG. 7",did not suppress the AA beyond the termination of the treatment regimen
same,day by which groups reached equivalent severity to the controls,"adjuvant arthritis (AA) [8]; SA 800 mg/kg/day, daily IP",≤ 33 days
same,footpad swelling after termination of treatment,"adjuvant arthritis (AA) [8]; SA 800 mg/kg/day, daily IP","an attenuated increase in footpad swelling was observed, however, the swelling was less than that found in the controls"
same,footpad swelling during treatment,"adjuvant arthritis (AA) [8]; SA 800 mg/kg/day, daily IP, FIG. 6",suppression of footpad swelling until the treatment stopped
same,clinical severity of arthritis,"adjuvant arthritis (AA) [8]; SA 800 mg/kg/day, daily IP, FIG. 7",delayed the clinical severity of the arthritis
same,"suppression of arthritis, both regimens",adjuvant arthritis (AA) [8]; continuous infusion and daily IP injections,resulted in suppression of arthritis
same,suppression of AA based on disease incidence,adjuvant arthritis (AA) [9]; SA 300 mg/kg/day CI,maximal suppression of AA based on the disease incidence
same,"footpad swelling, SA compared with MTX",adjuvant arthritis (AA) [9]; SA 300 mg/kg/day CI vs MTX […] and 3 mg/kg/week,trend towards greater inhibition
same,incidence of arthritis,"adjuvant arthritis (AA) [9]; SA 300 mg/kg/day CI, day 14, FIG. 9",no incidence of arthritis on day 14
same,footpad swelling suppression,"adjuvant arthritis (AA) [9]; SA 300 mg/kg/day CI, MTX 2.4 and 3 mg/kg/week IP, FIG. 8",significant suppression
same,"right footpad diameter, progression from day 23 to 63","[10]; SA 300 mg/kg/day CI or MTX […] IP, day 16 to 30, FIG. 10",did not increase significantly
same,persistence of lack of further swelling after cessation of treatment,[10]; [16],up to 33 days
same,progression / regression of established arthritis,[10]; [16],"SA prevented progression of AA, but because the disease had already established itself at the onset of treatment, SA did not cause regression of the arthritis"
same,mean right hindpaw thickness,"[10]; day 23, SA 300 mg/kg/day CI or MTX […] IP from day 16, control 321, normal about 170 U",258 U
same,"suppression of AA, single drugs IP",adjuvant arthritis (AA) [11],AA was not suppressed
same,body weight,[12],allowed weight gain
same,suppression of the disease by SA using this treatment protocol,adjuvant arthritis (AA) [4]; SA 800 mg/kg/day IP,only transient suppression of the disease
same,inhibition of delta-aminolevulinic dehydratase,[13],potent inhibitor
same,tumorigenicity of allogeneic tumors,allogeneic tumors,enhance tumorigenicity of allogeneic tumors in rats
same,toxicity,[14],non-toxic to the animals at the level necessary for suppression of AA
same,CI versus IP regimen at suppressing the AA,adjuvant arthritis (AA) [15]; 300 to 400 mg/kg/day CI vs 800 mg/kg/day IP,The CI regimen was more effective than the IP regimen at suppressing the AA
same,suppression of AA without death or weight loss,adjuvant arthritis (AA) [15]; SA 300 to 400 mg/kg/day CI or 800 mg/kg/day IP,suppressed AA without causing death or weight loss in the rats
same,"SA dose at which AA was suppressed without death or weight loss, IP",adjuvant arthritis (AA) [15]; daily intraperitoneal injection,800 mg/kg/day
